# Assay results: patent US6737383B1, “Herbicidal oxadiazolidines” (priority 1999, dated 2004)
# Columns and labels:
# [1] = tested on: bedstraw; experiment: Test B pre/postemergence bedstraw; assay type: in vivo, Galium aparine
# In short: (§1)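 Herbicidal effect was estimated by eye on a ten-point control scale after plants spent twelve to sixteen days in a greenhouse following soil or foliar treatment. Foliar sprays targeted plants at one to four leaves; all doses were formulated in a non-phytotoxic solvent with surfactant.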
# [2] = tested on: duck salad; experiment: Test B flood test duck salad; assay type: in vivo, Heteranthera limosa
# In short: (§2)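 Each value is a visual injury score relative to controls, with 10 meaning complete control and 0 no effect. Evaluation took place twelve to sixteen days after the 2-leaf-stage plants were treated and kept in the greenhouse.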
# [3] = tested on: pigweed; experiment: Test B pre/postemergence pigweed; assay type: in vivo, Amaranthus retroflexus
# In short: as §1
# [4] = tested on: rice; experiment: Test B flood test rice; assay type: in vivo, Oryza sativa
# In short: as §2
# [5] = tested on: blackgrass; experiment: Test B pre/postemergence blackgrass; assay type: in vivo, Alopecurus myosuroides
# In short: as §1
# [6] = tested on: soybean; experiment: Test B pre/postemergence soybean; assay type: in vivo, Glycine max
# In short: as §1
# [7] = tested on: corn; experiment: Test B pre/postemergence corn; assay type: in vivo, Zea mays
# In short: as §1
# [8] = tested on: wheat; experiment: Test B pre/postemergence wheat; assay type: in vivo, Triticum aestivum
# In short: as §1
# [9] = tested on: surinam grass; experiment: Test B pre/postemergence surinam grass; assay type: in vivo, Brachiaria decumbens
# In short: as §1
# [10] = tested on: giant foxtail; experiment: Test B pre/postemergence giant foxtail; assay type: in vivo, Setaria faberii
# In short: as §1
# [11] = tested on: crabgrass; experiment: Test B pre/postemergence crabgrass; assay type: in vivo, Digitaria sanguinalis
# In short: as §1
# [12] = tested on: purple nutsedge; experiment: Test B pre/postemergence purple nutsedge; assay type: in vivo, Cyperus rotundus
# In short: as §1
# [13] = tested on: wild oat; experiment: Test B pre/postemergence wild oat; assay type: in vivo, Avena fatua
# In short: as §1
# [14] = tested on: velvetleaf; experiment: Test B pre/postemergence velvetleaf; assay type: in vivo, Abutilon theophrasti
# In short: as §1
# [15] = tested on: smallflower flatsedge; experiment: Test B flood test smallflower flatsedge; assay type: in vivo, Cyperus difformis
# In short: as §2
# [16] = tested on: morningglory; experiment: Test B pre/postemergence morningglory; assay type: in vivo, Ipomoea hederacea
# In short: as §1
# [17] = Preemergence, Rate 250 g/ha, scale of 0 to 10 where 0 is no effect and 10 is complete control
# [18] = Preemergence, Rate 500 g/ha, scale of 0 to 10 where 0 is no effect and 10 is complete control
# [19] = Rate 62 g/ha, Postemergence, scale 0 to 10 (0 no effect, 10 complete control)
# [20] = Rate 125 g/ha, Postemergence, scale of 0 to 10 where 0 is no effect and 10 is complete control
# [21] = Rate 125 g/ha, Preemergence, scale of 0 to 10 where 0 is no effect and 10 is complete control
# [22] = Rate 250 g/ha, Postemergence, scale of 0 to 10 where 0 is no effect and 10 is complete control
# [23] = Rate 500 g/ha, Postemergence, scale 0 to 10, 0 no effect, 10 complete control
# [24] = Rate 62 g/ha, headed Pre-emergence (flood test species), scale 0 to 10 (0 no effect, 10 complete control)
# [25] = Rate 125 g/ha, Pre-emergence, flood test species, scale 0 to 10 where 0 is no effect and 10 is complete control
# [26] = Rate 250 g/ha, Pre-emergence, flood-test species, scale 0 to 10, 0 is no effect, 10 is complete control
# [27] = Rate 500 g/ha, Pre-emergence, flood test species, scale 0 to 10 (0 no effect, 10 complete control)
# [28] = Preemergence, Rate 62 g/ha, scale of 0 to 10 where 0 is no effect and 10 is complete control
compound,measurement,setting,value
CC(C)N(C(=O)n1oc(=O)n(CC(C)(C)C)c1=O)c1ccc(F)cc1F [Compound 277],Bedstraw plant response rating,[1]; [17],0
same,"Plant response rating, Bedstraw",[1]; [18],2
same,Bedstraw plant response rating,[1]; [19],5
same,Bedstraw plant response rating,[1]; [20],6
same,Bedstraw plant response rating,[1]; [21],0
same,"Plant response rating, Bedstraw",[1]; [22],8
same,Bedstraw plant response rating,[1]; [23],8
same,Ducksalad plant response rating,[2]; [24],1
same,Ducksalad plant response rating,[2]; [25],2
same,Ducksalad plant response rating,[2]; [26],2
same,Ducksalad plant response rating,[2]; [27],2
same,Redroot pigweed plant response rating,[3]; [17],0
same,"Plant response rating, Redroot pigweed",[3]; [18],5
same,Redroot pigweed plant response rating,[3]; [19],1
same,Redroot pigweed plant response rating,[3]; [20],2
same,Redroot pigweed plant response rating,[3]; [21],0
same,"Plant response rating, Redroot pigweed",[3]; [22],4
same,Redroot pigweed plant response rating,[3]; [23],5
same,Rice plant response rating,[4]; [24],0
same,Rice plant response rating,[4]; [25],0
same,Rice plant response rating,[4]; [26],0
same,Rice plant response rating,[4]; [27],2
same,Blackgrass plant response rating,[5]; [17],10
same,"Plant response rating, Blackgrass",[5]; [18],10
same,Blackgrass plant response rating,[5]; [19],2
same,Blackgrass plant response rating,[5]; [20],8
same,Blackgrass plant response rating,[5]; [21],9
same,"Plant response rating, Blackgrass",[5]; [22],8
same,Blackgrass plant response rating,[5]; [23],8
same,Soybean plant response rating,[6]; [28],0
same,Soybean plant response rating,[6]; [17],0
same,"Plant response rating, Soybean",[6]; [18],4
same,Soybean plant response rating,[6]; [19],3
same,Soybean plant response rating,[6]; [20],4
same,Soybean plant response rating,[6]; [21],0
same,"Plant response rating, Soybean",[6]; [22],6
same,Soybean plant response rating,[6]; [23],8
same,Corn plant response rating,[7]; [28],0
same,Corn plant response rating,[7]; [17],0
same,"Plant response rating, Corn",[7]; [18],3
same,Corn plant response rating,[7]; [19],0
same,Corn plant response rating,[7]; [20],0
same,Corn plant response rating,[7]; [21],0
same,"Plant response rating, Corn",[7]; [22],0
same,Corn plant response rating,[7]; [23],0
same,Wheat plant response rating,[8]; [17],0
same,"Plant response rating, Wheat",[8]; [18],4
same,Wheat plant response rating,[8]; [19],0
same,Wheat plant response rating,[8]; [20],0
same,Wheat plant response rating,[8]; [21],0
same,"Plant response rating, Wheat",[8]; [22],0
same,Wheat plant response rating,[8]; [23],0
same,B. signalgrass plant response rating,[9]; [17],10
same,"Plant response rating, B. signalgrass",[9]; [18],10
same,B. signalgrass plant response rating,[9]; [19],0
same,B. signalgrass plant response rating,[9]; [20],0
same,B. signalgrass plant response rating,[9]; [21],9
same,"Plant response rating, B. signalgrass",[9]; [22],1
same,B. signalgrass plant response rating,[9]; [23],3
same,Giant foxtail plant response rating,[10]; [28],10
same,Giant foxtail plant response rating,[10]; [17],10
same,"Plant response rating, Giant foxtail",[10]; [18],10
same,Giant foxtail plant response rating,[10]; [19],2
same,Giant foxtail plant response rating,[10]; [20],3
same,Giant foxtail plant response rating,[10]; [21],10
same,"Plant response rating, Giant foxtail",[10]; [22],4
same,Giant foxtail plant response rating,[10]; [23],6
same,Crabgrass plant response rating,[11]; [28],4
same,Crabgrass plant response rating,[11]; [17],9
same,"Plant response rating, Crabgrass",[11]; [18],10
same,Crabgrass plant response rating,[11]; [19],1
same,Crabgrass plant response rating,[11]; [20],2
same,Crabgrass plant response rating,[11]; [21],4
same,"Plant response rating, Crabgrass",[11]; [22],5
same,Crabgrass plant response rating,[11]; [23],6
same,Nutsedge plant response rating,[12]; [28],0
same,Nutsedge plant response rating,[12]; [17],0
same,"Plant response rating, Nutsedge",[12]; [18],0
same,Nutsedge plant response rating,[12]; [19],0
same,Nutsedge plant response rating,[12]; [20],0
same,Nutsedge plant response rating,[12]; [21],0
same,"Plant response rating, Nutsedge",[12]; [22],0
same,Nutsedge plant response rating,[12]; [23],0
same,Wild oats plant response rating,[13]; [17],7
same,"Plant response rating, Wild oats",[13]; [18],8
same,Wild oats plant response rating,[13]; [19],0
same,Wild oats plant response rating,[13]; [20],0
same,"Plant response rating, Wild oats",[13]; [22],0
same,Wild oats plant response rating,[13]; [23],2
same,Velvetleaf plant response rating,[14]; [28],0
same,Velvetleaf plant response rating,[14]; [17],6
same,"Plant response rating, Velvetleaf",[14]; [18],7
same,Velvetleaf plant response rating,[14]; [19],1
same,Velvetleaf plant response rating,[14]; [20],1
same,Velvetleaf plant response rating,[14]; [21],1
same,"Plant response rating, Velvetleaf",[14]; [22],1
same,Velvetleaf plant response rating,[14]; [23],1
same,S. Flatsedge plant response rating,[15]; [24],0
same,S. Flatsedge plant response rating,[15]; [25],0
same,S. Flatsedge plant response rating,[15]; [26],0
same,S. Flatsedge plant response rating,[15]; [27],5
same,Morningglory plant response rating,[16]; [28],0
same,Morningglory plant response rating,[16]; [17],0
same,"Plant response rating, Morningglory",[16]; [18],0
same,Morningglory plant response rating,[16]; [19],7
same,Morningglory plant response rating,[16]; [20],8
same,Morningglory plant response rating,[16]; [21],0
same,"Plant response rating, Morningglory",[16]; [22],8
same,Morningglory plant response rating,[16]; [23],9
